Data: patent US11826369B2, “Targeting the TLK1/NEK1 axis in prostate cancer” (Board of Supervisors of Louisiana State University and …, priority 2019, dated 2023)

How the values were obtained:
[1] = test system: recombinant human dopamine receptors (D1 and D3); assay: Competitive radioassay with 7-Hydroxy DPAT, R-(+)-[3H] tracer; format: binding; conditions: 100 nM, compared to THD
[2] = test system: p-Nek1-T141 in LNCaP, VCaP, TRAMP-C2; assay: Western blots of checkpoint and apoptotic markers; format: cell-based; conditions: with or without BIC, all 3 AS cell lines
Protocol: LNCaP, VCaP, and TRAMP-C2 cells from the four treatment groups as indicated were analyzed by WB for several indicators of DNA damage/apoptosis and mediators of cell cycle arrest. Representative analysis of two independent experiments for each cell line are shown
J54 with Bicalutamide suppresses the checkpoint markers and induces apoptotic markers. LNCaP, VCaP, and TRAMP-C2 are the main examples of established PCa cell lines that are initially AS, but when maintained in ADT condition, recapitulate the conversion to AI growth observed in patients, and start growing again. In the initial phase of ADT, they arrest cell division, primarily at the G1/S transition, and become quiescent, which is a protective effect from undergoing replication forks collapse upon inhibition of the licensing function of the AR. […] The inventors were also able to reproduce that the expression of TLK1B was induced in LNCaP and TRAMP-C2 following the addition of BIC. […] The VCaP cells were a little different because even without any BIC, p-ATR and p-Chk1 were already elevated. This has been observed before and attributed to a constitutive DDR activation due to the TMPRSS2-ERG fusion in these cells.

[3] = General assessment of mice following injections; format: in vivo
Text: We then did a general assessment of mice following injections of J54. […] To get a better assessment of the possible behavioral effects of J54, the inventors used C. elegans that has a simple but complete nervous system and has been well characterized for its responses to anti-psychotic drugs, including actions at serotonin or dopamine receptors.

[4] = test system: C. elegans; assay: Behavioral assays in C. elegans; format: in vivo
Protocol: FIGS. 19A-19C show behavioral assays in C. elegans. In FIG. 15A, for the pharyngeal pumping assay, wild-type animals (N2 strain) were transferred to plates with diluted DMSO (Control) or drug (J-54 or trifluoperazine) at 160 μM final concentration for 90 min before quantifying pharyngeal pumping see SI methods). The inventors counted visible movement of the grinder (pharyngeal contractions) for 30 sec to obtain the pumping rate (N=45). […] Inhibition of pharyngeal pumping by trifluoperazine (TFP), a typical PTH antipsychotic, is attributed to its known activity as a dopamine and calmodulin antagonist. In FIG. 15B. foraging, regulated by serotonin and dopamine, was studied in wild-type animals evaluated in the presence of DMSO (Control) or J54 at a high dose of 160 μM vs. TFP at 40 μM. The number of omega turns (head touches body) and reversals were then counted over the next 3 min to quantify search behavior for each group (N=13 per group). […] Dopamine produces immobility in C. elegans after 2-3 hr of exposure. Antipsychotic drugs, such as haloperidol, that potently block D2 dopamine receptors largely counteract the effects of dopamine, i.e., more animals continue to move on plates that include dopamine plus drug. Wild-type animals were incubated on 60 agar plates with bacteria and diluted DMSO (Control) or J54 or haloperidol at 160 μM final concentrations. After 1 hr on these plates, they were transferred to 60 mm agar plates with bacteria that also contained dopamine (final concentration 25 mM) plus diluted DMSO (Control) or else J-54 or haloperidol at final concentrations of 160 μM. After 3 hr on the dopamine plates, the inventors examined movement and counted animals as moving if they traversed half their body length in either the forward or backward direction during a 5-sec observation period. The inventors then calculated the percentage of animals moving and repeated this experiment three times to confirm the effects of drug.
We then did a general assessment of mice following injections of J54. […]

[5] = target: T1, recombinant TLK1B (Homo sapiens, UniProt Q9UKI8); assay: TLK1B kinase assay with Nek1 peptide (ADP Hunter), inhibitor screening; format: biochemical; set-up: The full-length, 65 KDa recombinant human TLK1B (hTLK1B) for the in-vitro experiments was expressed and purified from bacteria; made in house; host or cells: bacteria
T1 sequence (Q9UKI8 1-549 isoform Q9UKI8-3): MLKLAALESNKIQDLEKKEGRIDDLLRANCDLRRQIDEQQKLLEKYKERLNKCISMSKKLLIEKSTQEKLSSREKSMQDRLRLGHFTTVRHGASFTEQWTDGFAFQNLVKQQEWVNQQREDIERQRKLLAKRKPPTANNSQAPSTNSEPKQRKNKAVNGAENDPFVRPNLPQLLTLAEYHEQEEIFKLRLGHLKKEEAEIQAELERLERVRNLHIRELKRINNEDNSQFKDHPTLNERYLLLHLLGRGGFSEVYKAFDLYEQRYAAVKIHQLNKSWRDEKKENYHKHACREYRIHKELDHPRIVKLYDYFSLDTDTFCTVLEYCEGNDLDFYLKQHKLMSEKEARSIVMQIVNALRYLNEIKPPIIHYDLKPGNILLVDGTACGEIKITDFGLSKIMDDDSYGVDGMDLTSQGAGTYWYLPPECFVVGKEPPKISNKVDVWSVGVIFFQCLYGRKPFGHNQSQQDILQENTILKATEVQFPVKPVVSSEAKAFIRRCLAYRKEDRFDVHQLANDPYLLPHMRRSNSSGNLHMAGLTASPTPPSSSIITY
Protocol: FIG. 8A-FIG. 25 show further experiments into the present invention, with FIGS. 8A-8G show kinase assays, inhibitor screening, IC50 evaluation and competitive assays. Recombinant TLK1B purified to homogeneity (FIG. 8A) is active in kinase assays (FIG. 8B) and phosphorylates a specific Nek1 peptide (FIG. 8C). […] All experiments were conducted in triplicates. The DiscoverRx ADP Hunter™ (Eurofins DiscoverRx, Fremont, CA, US) Kit was used to measure the generation of ADP resulting from kinase phosphorylation of substrate.
Chemical synthesis of J54 and several different Phenothiazines and Protein expression and purification: Details were explained in section B of supplementary of material and methods. The full-length, 65 KDa recombinant human TLK1B (hTLK1B) for the in-vitro experiments was expressed and purified from bacteria as described earlier.
Results: A new PTH potent inhibitor of TLK1B. A few PTH antipsychotics were identified in a screen the inventors conducted from a compounds library as good inhibitors of TLK1. To find additional inhibitors, recombinant TLK1B was purified (FIG. 8A). The enzymatic activity was determined using the ADP-Hunter reagents and a Nek1 peptide containing the T141 target site. […] Several structurally similar compounds were synthesized as described in the Appendix (and see NMR and MS data FIGS. 10 and 11) and tested at 20 μM (FIGS. 8E and 8F). […] The inventors continued the inventors' characterization of J54.

## c1ccc2c(c1)Sc1ccccc1N2CCN1CCOCC1 [J54, 4-(2-(10H-phenothiazin-10-yl)ethyl) morpholine]
[1]
  antagonism of dopamine receptors: very weak antagonist
[2]
  p-Nek1-T141 level: reduction in the p-Nek1-T141
[3]; incl. gross inspection of organs at necropsy
  toxicity: no toxicity
[3]; mouse, in vivo
  behavioral changes: no behavioral changes
  body weight: no decrease in body weight
[4]; 160 μM, 90 min
  pharyngeal pumping rate: reduced the pumping rate but to a lesser extent than a much lower concentration of TFP
[4]; prolonged exposure
  toxicity to worms: not toxic to worms even after prolonged exposure
[4]; three studies
  behavioral effects attributable to DR2 activity: much weaker behavioral effects
[5]; new inhibitor screening assay
  IC50: 12.6 µM
[5]; tested at 20 μM
  inhibition of TLK1B compared with standard: more inhibitory than Staurosporin
